The values below come from patent US20110034526A1, “Benzimidazole Compounds” (Wyeth LLC, priority 2007, published 2011).

The EC50 is the concentration giving half of the maximal effect. A word on the IC50: it is the concentration at which inhibition is half-maximal. A lower IC50 goes with greater potency in that assay.

For one experiment, the system named is ABCA1 gene. The experiment can be described thus: Quantitative analysis of ABCA1 gene regulation in THP-1 cells (real-time PCR). In kind it is cell-based, human. To be noted: read-out: EC50 ABCA1. The method, then: The compounds of formula (I) effect on the regulation of the ABCA1 gene was evaluated using the following procedure.
The THP-1 monocytic cell line (ATCC # TIB-202) was obtained from American Type Culture Collection (Manassas, Va.) and cultured in RPMI 1640 medium (Gibco, Carlsbad, Calif.) containing 10% FBS, 2 mM L-glutamine, and 55 uM beta-Mercaptoethanol (BME). […] Differentiated THP-1 cells were treated with test compounds or ligands dissolved in DMSO (Sigma, D-8779) in culture medium lacking phorbal ester. […] Unstimulated cells treated with vehicle were included as negative controls on each plate. An LXR agonist reference, N-(2,2,2-trifluoro-ethyl)-N-[4-(2,2,2-trifluoro-1-hydroxy-1-trifluoromethyl-ethyl)-phenyl]-benzenesulfonamide (Schultz, Joshua R., Genes & Development (2000), 14(22), 2831-2838), was dosed at 1.0 uM and served as a positive control. […] Results of antagonist analysis are expressed as % antagonism and IC50 (in μM).
Total cellular RNA was isolated from treated cells cultured in 96-well plates using PrepStation 6100 (Applied Biosystems, Foster City, Calif.), according to the manufacturer's recommendations. RNA was resuspended in ribonuclease-free water and stored at −70° C. prior to analysis. RNA concentrations were quantitated with RiboGreen test procedure, #R-11490 (Molecular Probes, Eugene, Oreg.).
Gene-specific mRNA quantitation was performed by real-time PCR with the Perkin Elmer Corp. chemistry on an ABI Prism 7700 Sequence detection system (Applied Biosystems, Foster City, Calif.) according to the manufacturer's instructions. Samples (50-100 ng) of total RNA were assayed in duplicate or triplicate in 50 μl reactions using one-step RT-PCR and the standard curve method to estimate specific mRNA concentrations. Sequences of gene-specific primer and probe sets were designed with Primer Express Software (Applied Biosystems, Foster City, Calif.). […] RT and PCR reactions were performed according to PE Applied Biosystem's protocol for Taqman Gold RT-PCR or Qiagen's protocol for Quantitect probe RT-PCR. Relative levels of ABCA1 mRNA are normalized using GAPDH mRNA or 18S rRNA probe/primer sets purchased commercially (Applied Biosystems, Foster City, Calif.).
Mean, standard deviation and statistical significance of duplicate evaluations of RNA samples were assessed using ANOVA, one-way analysis of variance using SAS analysis.

Another experiment has as its target T1, human LXRβ (Homo sapiens, UniProt P55055).
T1 construct: biotin (biotinylated); made in house; host or cells: E. coli (crude extract)
T1 sequence (P55055 1-460): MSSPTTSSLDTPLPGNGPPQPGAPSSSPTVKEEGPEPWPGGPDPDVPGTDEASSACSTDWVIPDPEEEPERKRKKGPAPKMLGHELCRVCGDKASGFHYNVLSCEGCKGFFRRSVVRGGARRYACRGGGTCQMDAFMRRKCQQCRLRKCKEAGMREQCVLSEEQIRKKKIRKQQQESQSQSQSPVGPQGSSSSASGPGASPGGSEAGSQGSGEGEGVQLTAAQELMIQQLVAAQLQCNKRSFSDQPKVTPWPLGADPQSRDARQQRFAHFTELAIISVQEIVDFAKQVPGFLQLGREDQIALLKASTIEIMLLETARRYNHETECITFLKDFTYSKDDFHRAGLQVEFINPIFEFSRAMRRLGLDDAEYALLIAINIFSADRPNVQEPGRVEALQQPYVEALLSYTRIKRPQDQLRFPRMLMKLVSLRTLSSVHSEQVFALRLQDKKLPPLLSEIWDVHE
In words: Ligand-binding test procedure for human LXRβ (3H T0901317 tracer, flash plates).

The next experiment has as its target T2, human LXRα (Homo sapiens, UniProt Q13133).
T2 construct: biotin (biotinylated); made in house; host or cells: E. coli (crude extract)
T2 sequence (Q13133 1-447): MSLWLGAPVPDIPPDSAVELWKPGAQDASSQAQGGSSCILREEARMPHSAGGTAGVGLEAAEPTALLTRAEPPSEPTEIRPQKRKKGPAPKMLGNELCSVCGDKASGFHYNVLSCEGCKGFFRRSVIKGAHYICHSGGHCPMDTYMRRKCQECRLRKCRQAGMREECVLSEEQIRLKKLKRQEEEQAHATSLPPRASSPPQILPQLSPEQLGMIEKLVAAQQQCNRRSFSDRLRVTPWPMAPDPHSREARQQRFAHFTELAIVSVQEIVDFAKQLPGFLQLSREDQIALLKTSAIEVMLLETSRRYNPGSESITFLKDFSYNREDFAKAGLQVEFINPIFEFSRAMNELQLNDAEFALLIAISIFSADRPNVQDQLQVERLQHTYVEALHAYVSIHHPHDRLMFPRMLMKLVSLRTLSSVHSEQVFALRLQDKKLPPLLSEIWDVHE
In words: Ligand-binding test procedure for human LXRα (3H T0901317 tracer, flash plates). As to conditions: biotinylated hLXRα, tracer 3H T0901317.

The mark [1] stands for this setting: Gene regulation by LXR (Human), differentiated THP-1 cells, 18 hrs, ABCA1 mRNA.

Read-outs that look alike come from different tables or passages of the source.

For `CCc1nc2c(C(F)(F)F)cccc2n1-c1ccc(Oc2cccc(S(C)(=O)=O)c2)cc1` [Example 67, 2 ethyl-1-{4-[3-(methylsulfonyl)phenoxy]phenyl}-4-(trifluoromethyl)-1H-benzimidazole], the EC50 with ABCA1 gene (setting [1]) amounted to 846 nM. Further, the IC50 at human LXRβ was 99 nM; at human LXRα, 197 nM.

As to `CCc1nc2c(C(F)(F)F)cccc2n1-c1ccc(Oc2cc(F)cc(S(C)(=O)=O)c2)cc1` [Example 69, 2-ethyl-1-{4-[3-fluoro-5-(methylsulfonyl)phenoxy]-phenyl}-4-(trifluoromethyl)-1H-benzimidazole], the concentration giving a half-maximal response (EC50) with ABCA1 gene (setting [1]) amounted to 245 nM. For the same molecule, the IC50 is 20 nM at human LXRβ and 280 nM at human LXRα.

For the molecule `CCS(=O)(=O)c1cccc(Oc2ccc(-n3c(C(F)(F)F)nc4c(C(F)(F)F)cccc43)cc2)c1` [Example 71, 1-{4-[3-(ethylsulfonyl)phenoxy]phenyl}-2,4-bis(trifluoromethyl)-1H-benzimidazole], the EC50 in the experiment with ABCA1 gene (Homo sapiens, THP-1, 18 h) is 290 nM. For the same molecule, the IC50 on human LXRβ is 83 nM; on human LXRα, 1100 nM.

Take `CC(C)S(=O)(=O)c1cccc(Oc2ccc(-n3c(C(F)(F)F)nc4c(C(F)(F)F)cccc43)cc2)c1` [Example 73, 1-{4-[3-(isopropylsulfonyl)phenoxy]phenyl}-2,4-bis(trifluoromethyl)-1H-benzimidazole]: in the experiment with ABCA1 gene (setting [1]), the EC50 is 470 nM. Moreover, the IC50 on human LXRβ is 47 nM; on human LXRα, 800 nM.

Consider `COc1ccc(-n2c(C(F)(F)c3ccccc3)nc3c(C(F)(F)F)cccc32)cc1` [Example 74, 2-[difluoro(phenyl)methyl]-1-(4-methoxyphenyl)-4-(trifluoromethyl)-1H-benzimidazole], for which the EC50 in the experiment with ABCA1 gene (setting [1]) is 440 nM. Moreover, the values for the IC50 on human LXRβ and at human LXRα were 32 nM and 635 nM, respectively.

As to `Cc1nc2c(C(F)(F)F)cccc2n1-c1cccc(-c2cccc(S(C)(=O)=O)c2)c1` [Example 75, 2-methyl-1-[3′-(methylsulfonyl)biphenyl-3-yl]-4-(trifluoromethyl)-1H-benzimidazole], the EC50 with ABCA1 gene (Homo sapiens, THP-1, 18 h) worked out at 215 nM. Also, the figures for the IC50 at human LXRβ and on human LXRα were 12.7 nM and 304 nM, respectively.

Take `Cc1nc2c(C(F)(F)F)cccc2n1-c1cccc(Oc2cccc(S(=O)(=O)CCCS(C)(=O)=O)c2)c1` [Example 76, 2-methyl-1-[3-(3-{[3-(methylsulfonyl)propyl]sulfonyl}phenoxy)phenyl]-4-(trifluoromethyl)-1H-benzimidazole]: in the experiment with ABCA1 gene (Homo sapiens, THP-1, 18 h), the EC50 amounted to 155 nM. The IC50 amounted to 20 nM on human LXRβ and 319 nM on human LXRα.

For the molecule `CS(=O)(=O)c1cc(F)cc(Oc2ccc(Cl)c(-n3cnc4c(C(F)(F)F)cccc43)c2)c1` [Example 82, 1-{2-chloro-5-[3-fluoro-5-(methylsulfonyl)phenoxy]phenyl}-4-(trifluoromethyl)-1H-benzimidazole], the EC50 in the experiment with ABCA1 gene (Homo sapiens, THP-1, 18 h) amounted to 1210 nM. Also, the IC50 at human LXRβ is 4.9 nM; on human LXRα it was 102 nM.

Take `CS(=O)(=O)c1ccc(Oc2ccc(Cl)c(-n3cnc4c(C(F)(F)F)cccc43)c2)cc1` [Example 83, 1-{2-chloro-5-[4-(methylsulfonyl)phenoxy]phenyl}-4-(trifluoromethyl)-1H-benzimidazole]: the EC50 in the experiment with ABCA1 gene (Homo sapiens, THP-1, 18 h) stood at 110 nM. The IC50 on human LXRβ is 33 nM; on human LXRα, 277 nM.

As for `Cc1cc(Oc2cccc(S(=O)(=O)C(C)C)c2)ccc1-n1c(C)nc2c(C(F)(F)F)cccc21` [Example 95, 2-methyl-1-(2-methyl-4-{3-[(1-methylethyl)sulfonyl]phenoxy}phenyl)-4-(trifluoromethyl)-1H-benzimidazole], the EC50 in the experiment with ABCA1 gene (setting [1]) turned out to be 409 nM. Also, the values for the IC50 at human LXRβ and on human LXRα were 61 nM and 1290 nM, respectively.

Regarding `Cc1nc2c(C(F)(F)F)cccc2n1-c1cccc(OCc2cccc(S(C)(=O)=O)c2)c1` [Example 107, 2-methyl-1-(3-{[3-(methylsulfonyl)benzyl]oxy}phenyl)-4-(trifluoromethyl)-1H-benzimidazole], the EC50 in the experiment on ABCA1 gene (setting [1]) stood at 3530 nM. The IC50 at human LXRβ was determined as 120 nM; on human LXRα it was 1960 nM.
